This note sets out measurements from ChEMBL document CHEMBL1201862, “PubChem BioAssay data set” (2004).

What all share (test): NCI tumour cell line growth inhibition, 48 h
Experiment [1] deals with SW-620.
For experiment [2], the system named is KM12.
For experiment [3], the system named is HCT-116.
Experiment [4] concerns A549.
The subject of experiment [5] is M14.
For experiment [6], the system named is SR.
In experiment [7] the test system is Malme-3M.
Experiment [8] relates to IGROV-1.
In experiment [9] the test system is RPMI-8226.
In experiment [10] the test system is LOX IMVI.
Experiment [11] relates to U-251.
Experiment [12] concerns UACC-62.
The subject of experiment [13] is OVCAR-3.
In experiment [14] the test system is UO-31.
For experiment [15], the system named is OVCAR-4.
In experiment [16] the test system is 786-0.
The subject of experiment [17] is SNB-75.
The subject of experiment [18] is HT-29.
Experiment [19] concerns Hs-578T.

Each structure is given as a SMILES string.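 Interpolation was linear, between the two tested concentrations surrounding the appropriate level; five concentrations were tested over 48 hours in 96-well plates. The concentration for 50% growth inhibition is given as GI50.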 Calls of active or inactive are those of the source. Rule as the data show it: active = GI50 up to about 1.1 µM and inactive = higher. Where only a bound is given, the exact number is not on record here.

Consider `COC(=O)CCC(NC(=S)N/N=C/c1ccccn1)C(=O)OC` (centres undefined), for which the GI50 in experiment [1] was > 100 µM (inactive); in [2], > 100 µM (inactive); in experiment [3] it was > 100 µM (inactive); in experiment [4] it was > 100 µM (inactive); in [5], > 100 µM (inactive); in experiment [6], 59.2 µM (inactive). Also, the GI50 in experiment [7], in [8], in [9], in experiment [10], in experiment [11] and in [12] was > 100 µM (inactive) throughout. Besides, the GI50 in experiment [13], in experiment [14], in experiment [15], in experiment [16], in experiment [17] and in experiment [18] was > 100 µM (inactive) in each case.
In the case of `Cc1nc(C(N)=S)sc1C(=O)CC(=O)C(=O)Nc1ccccc1[N+](=O)[O-]`, the GI50 in experiment [1], in experiment [2], in experiment [3], in experiment [4], in [5] and in [6] was > 100 µM (inactive) each time. The GI50 in experiment [7], in experiment [8], in [9], in experiment [10], in experiment [11] and in [12] was > 100 µM (inactive) throughout. Also, the GI50 in [13], in experiment [14], in experiment [15], in experiment [16], in experiment [17] and in experiment [18] was > 100 µM (inactive) each time.
On to `CCN(CC)c1ccc2cc3ccc(N(CC)CC)cc3[o+]c2c1`, for which the GI50 was 0.237 µM (active) in [1]; 0.51 µM (active) in experiment [2]; 0.29 µM (active) in experiment [3]; 3.14 µM (inactive) in [4]; 1.95 µM (inactive) in experiment [5]; 0.267 µM (active) in experiment [6]. The GI50 was 1.2 µM (inactive) in experiment [7]; 2.08 µM (inactive) in [8]; 0.305 µM (active) in experiment [9]; 0.6 µM (active) in [10]; 0.624 µM (active) in experiment [11]; 1.71 µM (inactive) in experiment [12]. The GI50 in experiment [13] was 0.8 µM (active); in experiment [14] it was 2.28 µM (inactive); in [15] it was 11.1 µM (inactive); in experiment [16] it was 2.97 µM (inactive); in experiment [17] it was 5.37 µM (inactive); in experiment [18], 0.474 µM (active).
Consider `O=C(CC(C(=O)c1cccs1)c1ccsc1)c1ccc(Cl)s1` (centres undefined), for which the GI50 is > 100 µM (inactive) in [1]; > 100 µM (inactive) in [2]; 47.5 µM (inactive) in [3]; > 100 µM (inactive) in experiment [4]; 85.5 µM (inactive) in experiment [5]; 39.2 µM (inactive) in [6]. In addition, the GI50 in experiment [7] is > 100 µM (inactive); in experiment [8] it was > 100 µM (inactive); in experiment [9], 55.1 µM (inactive); in [10] it was > 100 µM (inactive); in experiment [11], > 100 µM (inactive); in experiment [12], 99.3 µM (inactive). Further, the GI50 in [14] is 36.6 µM (inactive); in experiment [15], > 100 µM (inactive); in experiment [16], > 100 µM (inactive); in [17], > 100 µM (inactive); in [18] it was 75.9 µM (inactive); in [19], 60.1 µM (inactive).
Consider `O=C1Oc2ccccc2C(=O)/C1=C\Nc1nc(-c2ccccc2)cs1`, for which the GI50 in [1] was 3.31 µM (inactive); in [2] it was 16.7 µM (inactive); in [3] it was 4.95 µM (inactive); in experiment [4], 31 µM (inactive); in experiment [5] it was 4.53 µM (inactive); in experiment [6], 2.01 µM (inactive). Besides, the GI50 was 11.6 µM (inactive) in experiment [7]; 12.3 µM (inactive) in experiment [8]; 4.47 µM (inactive) in experiment [9]; 5.2 µM (inactive) in experiment [10]; 11.8 µM (inactive) in experiment [11]; 5.36 µM (inactive) in [12]. The GI50 in experiment [13] is 14.3 µM (inactive); in experiment [14], 7.8 µM (inactive); in [15] it was 58.7 µM (inactive); in experiment [16] it was 5.83 µM (inactive); in experiment [17] it was 5.86 µM (inactive); in experiment [18], 5.21 µM (inactive). Besides, the GI50 in [19] was 15.7 µM (inactive).
In the case of `COC(=O)c1ccc(CS(=O)(=O)c2ccccc2)cc1`, the GI50 in experiment [1] is 45.1 µM (inactive); in [2], 51.9 µM (inactive); in [3], 60.3 µM (inactive); in experiment [4] it was 67.8 µM (inactive); in experiment [5] it was 49.8 µM (inactive); in experiment [6] it was 45 µM (inactive). In addition, the GI50 in experiment [7] was > 100 µM (inactive); in experiment [8], > 100 µM (inactive); in experiment [9], > 100 µM (inactive); in [10] it was 74.3 µM (inactive); in [11], > 100 µM (inactive); in [12], 99.8 µM (inactive). The GI50 is > 100 µM (inactive) in experiment [13]; > 100 µM (inactive) in experiment [14]; > 100 µM (inactive) in [15]; > 100 µM (inactive) in [16]; 48.3 µM (inactive) in [17]; 40.8 µM (inactive) in experiment [18].
Consider `CC(C)(CN1CCCCC1)C(=O)/C=C/c1ccc(Cl)c(Cl)c1`, for which the GI50 is 1.37 µM (inactive) in experiment [1]; 1.71 µM (inactive) in [2]; 1.65 µM (inactive) in experiment [3]; 1.98 µM (inactive) in [4]; 1.7 µM (inactive) in experiment [5]; 1.49 µM (inactive) in experiment [6]. Further, the GI50 is 1.83 µM (inactive) in experiment [7]; 2 µM (inactive) in experiment [8]; 2.52 µM (inactive) in experiment [9]; 1.37 µM (inactive) in experiment [10]; 1.37 µM (inactive) in experiment [11]; 1.76 µM (inactive) in experiment [12]. Further, the GI50 was 1.59 µM (inactive) in [13]; 1.63 µM (inactive) in experiment [14]; 1.51 µM (inactive) in experiment [15]; 1.38 µM (inactive) in experiment [16]; 1.48 µM (inactive) in [17]; 1.61 µM (inactive) in [18].
For the compound `CC1(C)C2CCC(=O)C1CC2` (centres undefined), the GI50 in [1], in [2], in experiment [3], in experiment [4], in [5] and in experiment [7] was > 100 µM (inactive) each time. Further, the GI50 in experiment [8], in [9], in experiment [10], in experiment [11], in experiment [12] and in experiment [13] was > 100 µM (inactive) in each case. For the same compound, the GI50 in experiment [14], in [16], in experiment [17], in [18] and in experiment [19] was > 100 µM (inactive) throughout.
